Active and inactive are the calls of the source. How the calls were made is not given here.
Columns and labels:
Experiment in all cases: PubChem AID 493040
[1] = target: Rho-associated protein kinase 2 (Homo sapiens) (UniProt O75116); details: kinase panel binding, pKi; ROCK2
[2] = target: Cyclin-dependent kinase 2 (Homo sapiens) (UniProt P24941); details: kinase panel binding, pKi; CDK2
[3] = target: Mitogen-activated protein kinase 14 (Homo sapiens) (UniProt Q16539); details: kinase panel binding, pKi; MAPK14
[4] = target: Serine/threonine-protein kinase Sgk2 (Homo sapiens) (UniProt Q9HBY8); details: kinase panel binding, pKi; SGK
[5] = target: Cell division cycle 7-related protein kinase (Homo sapiens) (UniProt O00311); details: kinase panel binding, pKi; CDC7
[6] = target: Cyclin-dependent kinase 5 (Homo sapiens) (UniProt Q00535); details: kinase panel binding, pKi; CDK5
Sequence of Cyclin-dependent kinase 5 (Homo sapiens) (Q00535 whole entry, looked up): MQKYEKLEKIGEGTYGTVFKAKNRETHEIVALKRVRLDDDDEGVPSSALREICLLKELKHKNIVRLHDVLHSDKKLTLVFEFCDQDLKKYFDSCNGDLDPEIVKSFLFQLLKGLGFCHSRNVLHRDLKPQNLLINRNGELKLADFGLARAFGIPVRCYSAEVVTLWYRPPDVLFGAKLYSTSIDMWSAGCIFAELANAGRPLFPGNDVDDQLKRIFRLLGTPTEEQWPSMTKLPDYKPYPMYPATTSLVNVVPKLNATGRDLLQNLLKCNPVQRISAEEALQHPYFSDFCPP

Sequence of Mitogen-activated protein kinase 14 (Homo sapiens) (Q16539 whole entry, looked up): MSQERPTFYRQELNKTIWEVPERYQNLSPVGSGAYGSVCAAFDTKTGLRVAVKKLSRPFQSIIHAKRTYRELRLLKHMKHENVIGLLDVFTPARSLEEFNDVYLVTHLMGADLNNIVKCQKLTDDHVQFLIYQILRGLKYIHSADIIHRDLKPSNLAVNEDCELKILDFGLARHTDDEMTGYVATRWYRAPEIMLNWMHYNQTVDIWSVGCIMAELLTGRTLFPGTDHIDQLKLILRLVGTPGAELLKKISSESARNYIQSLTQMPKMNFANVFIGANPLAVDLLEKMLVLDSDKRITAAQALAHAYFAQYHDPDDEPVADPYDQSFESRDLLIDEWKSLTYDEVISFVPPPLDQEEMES
Sequence of Serine/threonine-protein kinase Sgk2 (Homo sapiens) (Q9HBY8 whole entry, looked up): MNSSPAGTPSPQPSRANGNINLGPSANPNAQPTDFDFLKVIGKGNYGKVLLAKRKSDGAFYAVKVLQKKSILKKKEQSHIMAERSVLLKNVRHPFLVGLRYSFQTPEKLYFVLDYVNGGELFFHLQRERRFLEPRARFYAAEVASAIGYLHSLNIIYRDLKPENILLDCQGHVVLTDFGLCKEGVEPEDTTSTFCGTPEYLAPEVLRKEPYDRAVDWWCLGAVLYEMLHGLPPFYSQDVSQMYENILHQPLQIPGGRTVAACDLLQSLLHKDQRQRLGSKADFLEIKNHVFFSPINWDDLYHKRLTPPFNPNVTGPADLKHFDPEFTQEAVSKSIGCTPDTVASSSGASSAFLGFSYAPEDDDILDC
Sequence of Rho-associated protein kinase 2 (Homo sapiens) (O75116 whole entry, looked up): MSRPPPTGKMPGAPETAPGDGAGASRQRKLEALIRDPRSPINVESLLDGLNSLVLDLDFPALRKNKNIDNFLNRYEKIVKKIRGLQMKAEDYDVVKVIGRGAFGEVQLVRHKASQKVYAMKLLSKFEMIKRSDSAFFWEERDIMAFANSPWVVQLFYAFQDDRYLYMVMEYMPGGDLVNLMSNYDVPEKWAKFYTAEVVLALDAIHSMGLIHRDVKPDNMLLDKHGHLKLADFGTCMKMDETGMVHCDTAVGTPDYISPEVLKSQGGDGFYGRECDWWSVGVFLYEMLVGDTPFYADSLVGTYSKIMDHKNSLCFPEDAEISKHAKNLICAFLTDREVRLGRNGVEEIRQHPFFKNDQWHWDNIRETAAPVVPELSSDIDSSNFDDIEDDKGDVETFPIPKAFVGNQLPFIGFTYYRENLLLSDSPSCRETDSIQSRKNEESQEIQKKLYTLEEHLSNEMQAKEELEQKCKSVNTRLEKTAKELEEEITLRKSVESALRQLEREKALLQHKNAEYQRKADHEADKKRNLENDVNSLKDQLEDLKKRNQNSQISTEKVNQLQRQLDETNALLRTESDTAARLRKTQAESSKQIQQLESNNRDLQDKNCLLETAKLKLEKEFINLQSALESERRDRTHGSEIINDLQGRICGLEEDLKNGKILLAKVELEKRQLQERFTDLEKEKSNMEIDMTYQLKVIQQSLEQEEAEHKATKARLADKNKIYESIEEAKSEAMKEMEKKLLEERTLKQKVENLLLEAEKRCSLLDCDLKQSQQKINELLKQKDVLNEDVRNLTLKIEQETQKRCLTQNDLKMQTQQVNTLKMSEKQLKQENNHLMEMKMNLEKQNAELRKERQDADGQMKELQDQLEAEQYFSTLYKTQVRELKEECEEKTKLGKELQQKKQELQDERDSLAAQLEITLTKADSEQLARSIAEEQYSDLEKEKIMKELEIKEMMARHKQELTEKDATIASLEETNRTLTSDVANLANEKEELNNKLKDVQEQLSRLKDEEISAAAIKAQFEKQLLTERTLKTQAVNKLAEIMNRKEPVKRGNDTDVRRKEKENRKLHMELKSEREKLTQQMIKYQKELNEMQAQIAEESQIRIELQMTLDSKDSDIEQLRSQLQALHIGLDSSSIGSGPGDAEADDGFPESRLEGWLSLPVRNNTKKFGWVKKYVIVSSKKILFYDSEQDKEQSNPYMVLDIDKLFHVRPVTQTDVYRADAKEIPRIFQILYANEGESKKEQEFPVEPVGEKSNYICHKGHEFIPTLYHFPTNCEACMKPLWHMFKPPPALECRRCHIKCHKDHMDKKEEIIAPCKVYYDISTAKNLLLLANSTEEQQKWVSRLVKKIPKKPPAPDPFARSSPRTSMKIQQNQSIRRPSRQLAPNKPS
Sequence of Cell division cycle 7-related protein kinase (Homo sapiens) (O00311 whole entry, looked up): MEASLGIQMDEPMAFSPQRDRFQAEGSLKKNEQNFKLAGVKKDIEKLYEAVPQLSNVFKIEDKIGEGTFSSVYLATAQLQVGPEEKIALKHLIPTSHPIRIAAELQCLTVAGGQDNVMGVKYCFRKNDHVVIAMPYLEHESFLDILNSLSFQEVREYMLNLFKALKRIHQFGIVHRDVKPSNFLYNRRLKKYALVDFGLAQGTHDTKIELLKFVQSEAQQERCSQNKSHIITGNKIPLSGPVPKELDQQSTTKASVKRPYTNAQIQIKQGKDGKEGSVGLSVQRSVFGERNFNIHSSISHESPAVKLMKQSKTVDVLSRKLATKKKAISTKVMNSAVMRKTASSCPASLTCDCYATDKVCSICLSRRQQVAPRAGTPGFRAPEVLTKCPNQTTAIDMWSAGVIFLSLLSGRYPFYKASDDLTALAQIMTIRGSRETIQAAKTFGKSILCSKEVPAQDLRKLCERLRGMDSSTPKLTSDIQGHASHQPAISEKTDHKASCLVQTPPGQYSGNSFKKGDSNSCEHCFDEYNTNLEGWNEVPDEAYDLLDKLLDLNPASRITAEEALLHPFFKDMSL

COCC(C)Nc1cc(-c2c[nH]c3ncccc23)cc(Cl)n1 (centres undefined) was tested, and the Ki [1] was 7.94 nM and the Ki [2] was 158 nM.

For Fc1ccc2c(c1)-c1[nH]ncc1CS2, the Ki [2] was 20000 nM.

Work on CC(C)(C)c1cc(NC(=O)C(=O)c2cccc3ccccc23)n(-c2ccc(OCC(=O)NCCO)cc2)n1 yielded a Ki [3] of 631 nM.

With COc1cc2c(Oc3ccc4[nH]c(C)cc4c3F)ncnc2cc1OCCCN1CCCC1 the Ki [4] was > 10000 nM (inactive).

With NC(=O)c1ccc(-c2nc(-c3ccc4c(c3)OCO4)c(-c3ccccn3)[nH]2)cc1 the Ki [1] was > 3980 nM (inactive).

With CNCCOc1cncc(-c2ccc3n[nH]c(C)c3c2)c1 the Ki [1] was 20 nM and the Ki [2] was 501 nM.

Compound CCCCNc1c(-c2ccc3[nH]ncc3c2)nc2ncccn12 has a Ki [1] of 63.1 nM and a Ki [2] of 398 nM.

With CCCCCCCCCCCCOc1ccc(N=C(N)N)cc1N=C(N)N the Ki [1] was 3160 nM, the Ki [4] was > 10000 nM (inactive) and the Ki [2] was 5010 nM.

For NC(=O)c1ccc(Nc2ncnc3[nH]cc(-c4ccccc4)c23)cc1, the Ki [1] was 251 nM and the Ki [2] was 501 nM.

With Cc1c(C#N)c2nc3ccccc3n2c(=O)c1=CO the Ki [1] was > 7940 nM (inactive) and the Ki [4] was > 10000 nM (inactive).

With Cc1[nH]nc2ccc(-c3cncc(OCCN(C)S(C)(=O)=O)c3)cc12 the Ki [1] was 100 nM and the Ki [2] was 501 nM.

In the case of CC(C)(CO)CCCNc1cc(-c2c[nH]c3ncccc23)cc(Cl)n1, the Ki [1] is reported as 10 nM and the Ki [2] is reported as 100 nM.

Work on O=C1Nc2ccccc2Nc2cc(-c3ccncc3F)ccc21 yielded a Ki [1] of 126 nM and a Ki [2] of 398 nM.

OCCNc1cc(-c2c[nH]c3ncccc23)cc(Cl)n1 was tested, and the Ki [1] was 20 nM and the Ki [2] was 316 nM.

Cc1cccc(CNc2cc(-c3c[nH]c4ncccc34)cc(Cl)n2)c1C gave a Ki [1] of 31.6 nM and a Ki [2] of 200 nM.

NC(=O)c1ccc2nc(-c3ccc([N+](=O)[O-])o3)cn2c1 gave a Ki [3] of 3160 nM.

Work on CS(=O)(=O)Nc1ccccc1-c1ccc2c(c1)Nc1ccccc1NC2=O yielded a Ki [2] of 6310 nM.

Compound Cn1cc(-c2ccccc2)c2nc(-c3ccncc3)cc(=O)n21 has a Ki [1] of 3160 nM.

OCCCCNc1cc(-c2c[nH]c3ncccc23)cc(Cl)n1 was tested, and the Ki [1] was 15.8 nM and the Ki [2] was 126 nM.

CC(C)CC(NC(=O)c1cccc(-n2nc(C(C)(C)C)cc2NC(=O)Nc2cccc3ccccc23)c1)C(N)=O (centres undefined) showed a Ki [3] of 794 nM.

For NC(=O)c1ccccc1Nc1nc(Nc2ccccc2)ncc1C(F)(F)F, the Ki [1] was 501 nM.

For c1ccc(Cn2cc(-c3ccc4[nH]nc(-c5ccccc5)c4c3)nn2)cc1, the Ki [1] was 63.1 nM and the Ki [2] was 100 nM.

CCn1c(-c2nonc2N)nc2cnc(Oc3cccc(NC(=O)c4ccc(OCCN5CCOCC5)cc4)c3)cc21 was tested, and the Ki [4] was 200 nM and the Ki [2] was 794 nM.

Compound Cc1cc(=O)[nH]c2n[nH]c(-c3cccc(C(F)(F)F)c3)c12 has a Ki [3] of 398 nM.

For CC(=O)n1ncc2cc(N)ccc21, the Ki [3] was 7940 nM.

With CC(C)(C)c1cc(NC(=O)c2cc3ccccc3s2)n(-c2ccc(OCC(=O)O)cc2)n1 the Ki [3] was 2510 nM.

CCOC(=O)c1c[nH]n2c(=O)cc(-c3ccncc3)nc12 showed a Ki [1] of 2000 nM.

O=[N+]([O-])c1cccc(-c2nnc3ccc(N4CCCCC4)nn23)c1 was tested, and the Ki [1] was > 7940 nM (inactive) and the Ki [2] was 631 nM.

Compound CCCCOc1cc(-c2ccncc2)cc2[nH]nc(N)c12 has a Ki [1] of 126 nM and a Ki [2] of 1000 nM.

In the case of O=C(NCc1ccccc1)c1c[nH]n2c(=O)cc(-c3ccncc3)nc12, the Ki [1] is reported as > 7940 nM (inactive) and the Ki [2] is reported as 158 nM.

With O=C(Nc1ccccc1)Nc1nccs1 the Ki [2] was 20000 nM.

For O=C1Nc2ccccc2Nc2cc(-c3ccncc3)ccc21, the Ki [1] was 316 nM and the Ki [2] was 1000 nM.

In the case of Cc1ccc(Nc2nccc(Nc3ccccc3C(=O)O)n2)cc1F, the Ki [1] is reported as > 7940 nM (inactive) and the Ki [2] is reported as 398 nM.

CN(C)c1ccc(-c2c(-c3ccc4[nH]nc(N)c4c3)nnn2Cc2ccccc2)cc1 was tested, and the Ki [1] was 20 nM, the Ki [5] was 0.398 nM and the Ki [2] was 126 nM.

O=c1cc(-c2ccncc2)nc(NCc2cc(F)cc(F)c2)[nH]1 showed a Ki [1] of 794 nM and a Ki [2] of 794 nM.

Cc1cc(=O)[nH]nc1-c1ccc(NC(=O)Nc2cc(C(F)(F)F)ccc2F)c(Cl)c1 showed a Ki [3] of 100 nM.

CCCn1c(=O)c2[nH]c(-c3cnn(Cc4cccc(C(F)(F)F)c4)c3)nc2n(CC)c1=O gave a Ki [2] of 5010 nM.

c1ccc(-c2ncc3ccccn23)cc1 showed a Ki [3] of 50100 nM.

c1ccc(Cn2cc(-c3ccc4[nH]nc(-c5cn(Cc6ccccc6)nn5)c4c3)nn2)cc1 showed a Ki [1] of 126 nM and a Ki [2] of 5.01 nM.

In the case of O=c1ncn2nc(Sc3ccc(F)cc3F)ccc2c1-c1c(Cl)cccc1Cl, the Ki [4] is reported as > 7940 nM (inactive).

For CC(C)(C)c1cc(NC(=O)Nc2cccc3ccccc23)n(-c2cccc(C(=O)N(CCN)CCO)c2)n1, the Ki [3] was 631 nM.

O=C1N=c2ccc(Br)cc2=C1c1sc(=S)[nH]c1O showed a Ki [4] of 2000 nM.

Work on O=C1CN=C(c2cccc(Cl)c2)c2c(sc3c2CCCC3)N1 yielded a Ki [2] of 7940 nM.

NC(=O)c1ccc(-c2ccnc(N)n2)cc1N1CCCCC1 gave a Ki [1] of 1580 nM and a Ki [2] of 1260 nM.

Compound CN(c1ccccc1-c1ccc2c(c1)Nc1ccccc1NC2=O)S(C)(=O)=O has a Ki [2] of 2000 nM.

For CC(C)(C)Oc1cc(-c2ccncc2)cc2[nH]nc(N)c12, the Ki [1] was 50.1 nM and the Ki [2] was 126 nM.

With COc1ccccc1C(=O)Nc1n[nH]c2ccc(-c3cn(Cc4ccccc4)nn3)cc12 the Ki [1] was > 7940 nM (inactive) and the Ki [2] was 251 nM.

Cc1cc(=O)n2[nH]cc(C(=O)NCc3ccccc3)c2n1 was tested, and the Ki [1] was 2510 nM.

O=C(Nc1ccc(CO)cc1)c1cnn2c(-c3ccccc3)ccnc12 was tested, and the Ki [4] was > 10000 nM (inactive).

NC(=O)c1ccc2c(ccn2-c2cccc(Cl)c2)c1 gave a Ki [1] of 2510 nM.

For O=c1cc(-c2ccc(F)cc2)nc2c(-c3ccc(F)cc3)c[nH]n12, the Ki [1] was > 7940 nM (inactive).

In the case of C=CCNc1cc(-c2c[nH]c3ncccc23)cc(Cl)n1, the Ki [1] is reported as 12.6 nM and the Ki [2] is reported as 100 nM.

With O=C(O)c1ccccc1Nc1ncnc(Nc2ccc3cn[nH]c3c2)n1 the Ki [1] was > 5010 nM (inactive), the Ki [2] was 316 nM and the Ki [6] was 251 nM.

Fc1cccc(-c2c[nH]c3ncccc23)c1 showed a Ki [1] of 316 nM and a Ki [2] of 1260 nM.

Compound CC(C)(O)CNc1cc(-c2c[nH]c3ncccc23)cc(Cl)n1 has a Ki [1] of 15.8 nM and a Ki [2] of 251 nM.

CN(C)CCCOc1cc(-c2ccncc2)cc2[nH]nc(N)c12 was tested, and the Ki [1] was 251 nM and the Ki [2] was 3160 nM.

With CCOC(=O)c1cn(-c2ccc(O)cc2C)c2cc(-c3ccncc3)ccc2c1=O the Ki [1] was 31.6 nM, the Ki [4] was > 10000 nM (inactive) and the Ki [2] was 3980 nM.

O=C1Nc2ccccc2Nc2cc(-c3ccncc3Cl)ccc21 showed a Ki [1] of 631 nM and a Ki [2] of 501 nM.

With O=c1cc(-c2cccc(F)c2)nc2c(-c3ccc(F)cc3)c[nH]n12 the Ki [1] was > 7940 nM (inactive).

Oc1ccc(-c2nc(-c3ccc(F)cc3)c(-c3ccncc3)[nH]2)cc1 was tested, and the Ki [1] was > 3980 nM (inactive) and the Ki [4] was > 6310 nM (inactive).

For O=C(O)c1ccccc1Nc1ccnc(NCc2cccc(O)c2)n1, the Ki [1] was > 7940 nM (inactive).

With Nc1n[nH]c2ccc(-c3nnn(Cc4ccccc4)c3C3CC3)cc12 the Ki [1] was 20 nM and the Ki [2] was 79.4 nM.

For CN(Cc1ccccc1)c1cc(-c2c[nH]c3ncccc23)cc(Cl)n1, the Ki [1] was 20 nM and the Ki [2] was 31.6 nM.

Compound Nc1ccc2cc(NCCc3ccccc3)cc(Nc3ncccn3)c2n1 has a Ki [3] of 2510 nM.

With CN(C)c1cc(-c2ccncc2)cc2[nH]nc(N)c12 the Ki [1] was 79.4 nM and the Ki [2] was 631 nM.

In the case of CCOC(=O)c1c(NC(=O)C2C(C)(C)C2(C)C)sc2cnccc12, the Ki [2] is reported as 1000 nM.

FC(F)(F)c1ccccc1CNc1nccc(-c2c[nH]c3ncccc23)n1 showed a Ki [2] of 5.01 nM.

CC(C)(C)c1cc(NC(=O)C(=O)c2cccc3ccccc23)n(-c2ccc(OCCC(N)=O)cc2)n1 gave a Ki [3] of 631 nM.

CCCCNc1cc(-c2c[nH]c3ncccc23)ncn1 gave a Ki [1] of 20 nM and a Ki [2] of 200 nM.

In the case of CCCCNc1cc(-c2ccncc2)cc2[nH]nc(N)c12, the Ki [1] is reported as 63.1 nM and the Ki [2] is reported as 200 nM.

With Oc1cccc(-c2nc(N3CCOCC3)c3oc4ncccc4c3n2)c1 the Ki [4] was > 7940 nM (inactive).

In the case of CCNC(=O)c1[nH]nc(-c2cc(Cl)c(O)cc2O)c1-c1ccc(OC)cc1, the Ki [1] is reported as 2510 nM and the Ki [2] is reported as 6310 nM.

With COc1ccc(C=C2SC(=Nc3ccccc3)NC2=O)cc1OC the Ki [4] was > 10000 nM (inactive).

NC(=O)c1ccc(-c2ccncc2)cc1NCc1cccc(F)c1 showed a Ki [1] of 5010 nM and a Ki [2] of 3160 nM.

Compound c1cnc2[nH]cc(-c3ccnc(NCC4CCCCC4)n3)c2c1 has a Ki [1] of 6.31 nM and a Ki [2] of 3.98 nM.

CCn1c(=C(C#N)C(=O)O)sc(=CNc2ccccc2)c1=O gave a Ki [4] of 3980 nM.

In the case of CC(C)(C)c1cc(NC(=O)c2cc3ccccc3s2)n(-c2cccc(OCC(=O)O)c2)n1, the Ki [3] is reported as 794 nM.

In the case of Nc1n[nH]c2ccc(-c3cc(Cc4ccccc4)no3)cc12, the Ki [1] is reported as 25.1 nM and the Ki [2] is reported as 200 nM.

For Cc1[nH]nc2ccc(-c3cncc(OCCNS(C)(=O)=O)c3)cc12, the Ki [1] was 158 nM and the Ki [2] was 316 nM.

For NC1CCCCC1Nc1nccc(Nc2ccccc2C(=O)O)n1 (centres undefined), the Ki [1] was > 7940 nM (inactive).

With NC(=O)c1cccc2[nH]c(-c3cccc(NCCN4CCCC4)n3)nc12 the Ki [4] was > 10000 nM (inactive).

Work on O=S(=O)(Nc1ccccn1)c1ccc(N=Cc2c(O)[nH]c3ccc4ncsc4c23)cc1 yielded a Ki [4] of 15.8 nM.

COCCNc1cc(-c2c[nH]c3ncccc23)cc(Cl)n1 gave a Ki [1] of 5.01 nM and a Ki [2] of 251 nM.

Cc1ccccc1-c1c(-c2ccc3n[nH]c(C)c3c2)nnn1Cc1ccccc1 was tested, and the Ki [2] was 3.98 nM.

In the case of COCCN(CCOC)c1cc(-c2c[nH]c3ncccc23)cc(Cl)n1, the Ki [1] is reported as 39.8 nM and the Ki [2] is reported as 2000 nM.

Work on c1ccc(Cn2nnc(-c3ccc4[nH]ncc4c3)c2-c2ccccc2)cc1 yielded a Ki [2] of 63.1 nM.

In the case of CCN(CCN(C)C)C(=O)c1cccc(-n2nc(C(C)(C)C)cc2NC(=O)Nc2cccc3ccccc23)c1, the Ki [3] is reported as 794 nM.

In the case of Cc1sc2[nH]c(=O)n3nc(-c4ccncc4)nc3c2c1C, the Ki [1] is reported as 3980 nM.

Cc1cccc(CNc2cc(-c3c[nH]c4ncccc34)ncn2)c1 was tested, and the Ki [1] was 12.6 nM and the Ki [2] was 39.8 nM.

Reference: PubChem BioAssay AID493040 (Abbott Labs, 2011)
